We go through 19 compounds from patent US12297201B2, “Substituted pyrrolo[2,3-d]pyrimidines as antimicrobials” (BIOVERSYS AG, priority 2018, dated 2025).

For assay [1], the system named is Staphylococcus aureus (S. aureus) 11540 strain. The assay can be described thus: standard microdilution assay to determine MIC against S. aureus. The format is cell-based. The procedure:
(§1) The in vitro activity of the compounds of the present disclosure can be determined. Antimicrobial testing is typically performed to determine the minimum inhibitory concentration (MIC). Minimum inhibitory concentrations (MICs) are determined by the microdilution method in a final volume of 100 μl according to protocols outlined by The Clinical and Laboratory Standards Institute (CLSI). Performance standards for reference strains are assessed within the same experimental design to maintain quality control. See, for example, Clinical Laboratory Standards Institute: Methods for dilution antimicrobial susceptibility tests for bacteria that grow aerobically M7-A8. Approved Standard-Eighth Edition. Wayne, Pa.: CLSI; December 2008; and Clinical Laboratory Standards Institute: Performance Standards for Antimicrobial Susceptibility Testing M100-S20; Approved Standard-Twentieth Edition. Wayne, Pa.: CLSI; June 2010. The compounds of the present disclosure were tested for antimicrobial activity. The Compounds 1-105 were run against Escherichia coli (E. coli) strain ATCC25922 and against Staphylococcus aureus (S. aureus) 11540 strain using a standard microdilution assay to determine minimum inhibitory concentrations (MICs). […] It will be recognized by one skilled in the art that the compounds can be assessed against other bacterial organisms and that the presentation of data for activity against Escherichia coli and Staphylococcus aureus are illustrative and in no way is intended to limit the scope of the present disclosure. The compounds of the present disclosure can be assayed against a range of other microorganisms depending upon the performance activity desired to be gathered. Furthermore, the “+” and “−” representation and the selection of a cutoff value of 16 micrograms/mL is also illustrative and in no way is intended to limit the scope of the present disclosure.
A general note: Dilution methods test growth across graded concentrations, often in twofold steps.

In assay [2] the test system is Escherichia coli (E. coli) strain ATCC25922. Briefly: standard microdilution assay to determine MIC against E. coli. The format is cell-based. The procedure:
as §1

Bounds are passed on as bounds.

Regarding `C=CCN1[C@H](CCOC(=N)N)CCC[C@H]1c1ccc(-n2cc3cc(-c4cc(CCC[C@H](C)N)cc(Cl)c4F)[nH]c3nc2=O)cc1` [Compound 13], the MIC in assay [1] and in assay [2] was ≤ 16 µg/mL each time.

On to `CN1[C@H](CCOC(=N)N)CCC[C@H]1c1ccc(-n2cc3cc(-c4cc(CCC[C@@H](N)COC(=N)N)cc(Cl)c4F)[nH]c3nc2=O)cc1` [Compound 19], for which the MIC in assay [1] and in assay [2] was ≤ 16 µg/mL throughout.

With `C[C@H](N)CCCc1cc(Cl)c(F)c(-c2cc3cn(-c4ccc([C@@H]5CCC[C@@H](CCOC(=N)N)N5C)cc4)c(=O)nc3[nH]2)c1` [Compound 2], the MIC in assay [1] and in assay [2] was ≤ 16 µg/mL throughout.

Regarding `C[C@H](N)CCCc1cc(Cl)c(F)c(-c2cc3cn(-c4ccc([C@@H]5CCC[C@@H](CCOC(=N)N)N5CCF)cc4)c(=O)nc3[nH]2)c1` [Compound 5], the MIC in assay [1] and in assay [2] was ≤ 16 µg/mL in each case.

In the case of `CC(C)CN1[C@H](CCOC(=N)N)CCC[C@H]1c1ccc(-n2cc3cc(-c4cc(CCC[C@H](C)N)cc(Cl)c4F)[nH]c3nc2=O)cc1` [Compound 10], the MIC in assay [1] and in assay [2] was ≤ 16 µg/mL throughout.

`C=C[C@H](N)CCCc1cc(Cl)c(F)c(-c2cc3cn(-c4ccc([C@@H]5CCC[C@@H](CCOC(=N)N)N5C)cc4)c(=O)nc3[nH]2)c1` [Compound 18]: the MIC in assay [1] and in assay [2] was ≤ 16 µg/mL throughout.

For `COC(=O)CN1[C@H](CCOC(=N)N)CCC[C@H]1c1ccc(-n2cc3cc(-c4cc(CCC[C@H](C)N)cc(Cl)c4F)[nH]c3nc2=O)cc1` [Compound 11], the MIC in assay [1] and in assay [2] was ≤ 16 µg/mL throughout.

Take `CN1[C@H](CCOC(=N)N)CCC[C@H]1c1ccc(-n2cc3cc(-c4cc(CCC[C@@H](N)C5CC5)cc(Cl)c4F)[nH]c3nc2=O)cc1` [Compound 17]: the MIC in assay [1] and in assay [2] was ≤ 16 µg/mL throughout.

As for `C[C@H](N)CCCc1cc(Cl)c(F)c(-c2cc3cn(-c4ccc([C@@H]5CCC[C@@H](CCOC(=N)N)N5CCC5CCOCC5)cc4)c(=O)nc3[nH]2)c1` [Compound 4], the MIC in assay [1] and in assay [2] was ≤ 16 µg/mL in each case.

As for `C[C@H](N)CCCc1cc(Cl)c(F)c(-c2cc3cn(-c4ccc([C@@H]5CCC[C@@H](CCOC(=N)N)N5CCCF)cc4)c(=O)nc3[nH]2)c1` [Compound 3], the MIC in assay [1] and in assay [2] was ≤ 16 µg/mL in each case.

`C[C@H](N)CCCc1cc(Cl)c(F)c(-c2cc3cn(-c4ccc([C@@H]5CCC[C@@H](CCOC(=N)N)N5CCCO)cc4)c(=O)nc3[nH]2)c1` [Compound 12]: the MIC in assay [1] and in assay [2] was ≤ 16 µg/mL throughout.

Regarding `COCCN1[C@H](CCOC(=N)N)CCC[C@H]1c1ccc(-n2cc3cc(-c4cc(CCC[C@H](C)N)cc(Cl)c4F)[nH]c3nc2=O)cc1` [Compound 6], the MIC in assay [1] and in assay [2] was ≤ 16 µg/mL throughout.

`C[C@H](N)CCCc1cc(Cl)c(F)c(-c2cc3cn(-c4ccc([C@@H]5CCC[C@@H](CCOC(=N)N)N5CCC5CC5)cc4)c(=O)nc3[nH]2)c1` [Compound 9]: the MIC in assay [1] and in assay [2] was ≤ 16 µg/mL each time.

For the compound `CCN1[C@H](CCOC(=N)N)CCC[C@H]1c1ccc(-n2cc3cc(-c4cc(CCC[C@H](C)N)cc(Cl)c4F)[nH]c3nc2=O)cc1` [Compound 14], the MIC in assay [1] and in assay [2] was ≤ 16 µg/mL each time.

For `CCCN1[C@H](CCOC(=N)N)CCC[C@H]1c1ccc(-n2cc3cc(-c4cc(CCC[C@H](C)N)cc(Cl)c4F)[nH]c3nc2=O)cc1` [Compound 7], the MIC in assay [1] and in assay [2] was ≤ 16 µg/mL in each case.

For the compound `C[C@H](N)CCCc1cc(Cl)c(F)c(-c2cc3cn(-c4ccc([C@@H]5CCC[C@@H](CCOC(=N)N)N5CCCSC(=N)N)cc4)c(=O)nc3[nH]2)c1` [Compound 15], the MIC in assay [1] and in assay [2] was ≤ 16 µg/mL throughout.

Turning to `C[C@H](N)CCCc1cc(Cl)c(F)c(-c2cc3cn(-c4ccc([C@@H]5CCC[C@@H](CCOC(=N)N)N5C5CC5)cc4)c(=O)nc3[nH]2)c1` [Compound 16], the MIC in assay [1] and in assay [2] was ≤ 16 µg/mL in each case.

On to `CSCCN1[C@H](CCOC(=N)N)CCC[C@H]1c1ccc(-n2cc3cc(-c4cc(CCC[C@H](C)N)cc(Cl)c4F)[nH]c3nc2=O)cc1` [Compound 8], for which the MIC in assay [1] and in assay [2] was ≤ 16 µg/mL each time.

On to `COC(=N)NCC[C@@H]1CCC[C@@H](c2ccc(-n3cc4cc(-c5cc(CCC[C@H](C)N)cc(Cl)c5F)[nH]c4nc3=O)cc2)N1` [Compound 20], for which the MIC in assay [1] and in assay [2] was ≤ 16 µg/mL throughout.

The MIC is the lowest concentration found to suppress growth. A lower MIC goes with inhibition by little substance.
